The source of these data is patent publication US20090311348A1, “PHARMECEUTICAL AND COSMETIC USE OF SILICA” (priority 2006, published 2009).

Entries after “also recorded” stand apart in the source; their conditions may differ.

Common to all, as to assay type: cell-based
One experiment deals with Loricrin. The experiment is described as follows: Induction of differentiation marker loricrin in human epidermal keratinocytes (real time RT-PCR). The settings on record: NHEK, several concentrations. How it is done:
(§1) Silica mud precipitate was obtained from a natural source (Blue Lagoon geothermal basin, Svartsengi, Iceland). Sodium metasilicate was obtained from Prof. Dr. G. Lehmann, Biochemistry, Regensburg University. As control a ceramide mix (10 μM) was used to induce the differentiation markers.
(§2) Long term cultured normal human epidermal keratinocytes, NHEK, prepared from neonatal foreskin are cultured in Keratinocyte SFM (Invitrogen™, Heidelberg, Germany) supplemented with bovine pituitary extract (Invitrogen, Heidelberg, Germany) and recombinant epidermal growth factor (Invitrogen, Heidelberg, Germany). Cells are propagated up to passage 2 or 3 at 37° C. and 5% CO2. For induction of differentiation NHEKs are seeded in 6-well plates and grown up to confluence and treated with several concentrations of the silica preparates.
(§3) Total RNA was isolated using RNeasy Total RNA Kits (Qiagen, Hilden, Germany). The RNA concentration was determined via photometric measurement at 260/280 (Biophotometer, Eppendorf AG, Hamburg, Germany). An aliquot of 10 ng RNA was used for cDNA synthesis. […]
(§4) PCR reactions were carried out on an opticon 1 (MJ Research, Waltham, Mass., USA) using SYBR Green® PCR Master Mix (Applied Biosystems, Darmstadt, Germany). Each sample was analyzed in double employing the universal protocol over 36 cycles. […]
In general terms: In qPCR the cycle at which signal appears reflects the starting amount.

A further experiment deals with Involucrin. The experiment is described as follows: Induction of differentiation marker involucrin in human epidermal keratinocytes (real time RT-PCR). Particulars: NHEK, several concentrations. Here is the method:
as §1, §2, §3, §4

The subject of another experiment is Filaggrin. The experiment is described as follows: Induction of differentiation marker filaggrin in human epidermal keratinocytes (real time RT-PCR). Particulars: NHEK, several concentrations. Here is the method: as §1, §2, §3, §4
In a further experiment the test system is transglutaminase-1. The experiment is described as follows: Induction of differentiation marker transglutaminase-1 in human epidermal keratinocytes (real time RT-PCR). The settings on record: NHEK, several concentrations. Here is the method: as §1, §2, §3, §4
A further experiment concerns collagen 1A1. The experiment is described as follows: Collagen 1A1 gene expression in human dermal fibroblasts. The settings on record: real time RT-PCR. The text has this:
Human dermal fibroblasts, HDF, prepared from neonatal foreskin and cultured for 4 days until they reached confluence as described in Example 3.

For the molecule `O=[Si]([O-])[O-].[Na+].[Na+]` [sodium metasilicate], in the experiment on Loricrin, the expression of loricrin entry is “induced”. Further, the expression of involucrin result with Involucrin is recorded as “substantial up-regulation; also recorded: induced”. Moreover, the expression of filaggrin entry in the experiment on Filaggrin is recorded as “substantial up-regulation; also recorded: induced; also recorded: stronger than with silica mud”. Also, the “expression of transglutaminase-1” value in the experiment with transglutaminase-1 is reported as “substantial up-regulation; also recorded: induced”. Also, the “collagen 1A1 gene expression” value in the experiment on collagen 1A1 was “did not show any increase”.
